From US6376175B1, “Methods of discovering chemicals capable of functioning as gene expression modulators” (OSI Pharmaceuticals, Inc., priority 1989, dated 2002)

Tested on: G-CSF promoter
Assay: G-CSF promoter-luciferase induction by known inducers, clone G 1002 (5637 cells)
Format: cell-based, human
Source text: Cloning of G-CSF sequences is described in Experimental Details, section B-3. In order to correctly fuse the G-CSF upstream sequences to the luciferase start codon, oligonucleotides were synthesized which contain the G-CSF leader sequence from +15 to the ATG (32), and were cloned into pUC19 to create pGUC84 (FIG. 29). […] The G-CSF-oligonucleotide-containing NcoI/ScaI fragment from pGUC84 was then isolated and ligated to the luciferase-containing NcoI/ScaI fragment from pUV100 to create pGUV100 (FIG. 30). Following this, the PstI fragment of the G-CSF promoter was isolated form pJM710 (FIG. 7) and inserted into the PstI site in pGUV100 generating pGUV1(FIG. 31). The rest of the G-CSF promoter clone was added by ligating the G-CSF-luciferase containing SfiI/ScaI fragment from pGUV1 to the appropriate SfiI/ScaI fragment from pJM710, creating the plasmid pGUV2 (FIG. 32). The XbaI fragment from pGUV2 containing the G-CSF-luciferase fusion was then cloned into pUV103 previously digested with XbaI/SpeI, generating pGUV140 (FIG. 33). Finally, a TK-Neo cassette (Section C) was included by ligating the ScaI/XbaI fragment from pGUV140 which contains the G-CSF-luciferase fusion into pTKNEO103 previously digested with ScaI/XbaI, yielding the final vector pGUV150 (FIG. 34).
All the following constructs were transfected into 5637 bladder carcinoma cells either by electroporation using a BRL (Gaithersburg, Md.) Cellporator electroporation device or by lipofection using BRL lipofectin and following the manufacturer's protocol. For electroporation, cells were trypsinized, treated with Soybean trypsin inhibitor (1 mg/ml), washed three times in Dulbecco's modified Eagle's medium (DMEM) without pH indicator, and 1 ml of cell suspension in DMEM was electroporated at room temperature and at a cell density of 5 million cells per ml at a voltage of 250 V and a capacitance of 1180 microFarad with the electroporation device set at low resistance. In previous experiments these parameters had been determined to result in optimal electroporation efficiency. About 15 min after electroporation cells were recovered from the disposable electroporation containers (BRL, Gaithersburg, Md.) and plated in RPMI containing 10% fetal calf serum. 2 days after electroporation 0.4 mg/ml G 418 were added and clonal cell colonies were picked 14-20 days after transfection. Clones were first analysed for luciferase expression using Lysis Buffer 1 without bovine serum albumin (see Section F) and those testing positive expanded further and frozen in liquid nitrogen. Further analysis of 6 clones (G 1002, G 2005, G 2071, G 2085, G 3014, G3031) included Southern blotting, reaction to known inducers, satisfactory attachment to microtiter plates and acceptable standard deviation in multiple luciferase expression assays. Clones G 2005 and G 2085 were derived from 5637 cells lipofected with 100 ug/ml of linearized pGVU150 (FIG. 34), G 3031 descends from cells electroporated with 100 ug/ml of linearized pGVU150, whereas 200 ug/ml of the same plasmid were used to generate G 3014. Cotransfection of circular pGVU140 (FIG. 33) with circular pTKNeo3 (FIG. 19) was used to generate clones G 1002 and G 2071. While G 1002 resulted from co-electroporation of 50 and 5 ug/ml of the two plasmids, G 2071 descends from cells lipofected with 100 and 10 ug.
Cell clones with correctly integrated promoter/reporter constructs were analysed for correct reaction to known transcriptional inducers. […] Both TNF-alpha- and PMA-induction levels of clone G 1002 were influenced by the presence or absence of epidermal growth factor (EGF). […] The 9.3fold induction by PMA in the absence of EGF was reduced to 5.6fold by including EGF in the serum-free incubation mixture. Similar differences were observed, when EGF was substituted by 10% fetal calf serum.

[1] = 7-hour incubation, serum-free defined media with 20 ng/ml EGF
[2] = 7-hour incubation, serum-free defined media, absence of EGF
[3] = 10.5 hours, serum-containing media, 8.3 ng/ml TNF-alpha, 20 ng/ml PMA, 0.5 ng/ml Interleukin-1 beta, or mixtures as labelled

| Molecule | G-CSF promoter induction, clone G 1002 [1] | G-CSF promoter induction, clone G 1002 [2] | G-CSF promoter induction, clone G 1002 [3] |
| --- | --- | --- | --- |
| TNF-alpha | 3 fold | 4 fold | 2 fold |
| CCCCCCCCCCCCCC(=O)O[C@@H]1[C@@H](C)[C@@]2(O)[C@@H](C=C(CO)C[C@]3(O)C(=O)C(C)=C[C@@H]23)[C@@H]2C(C)(C)[C@]12OC(C)=O [PMA, phorbo-myristate-acetate, reference compound] | 5.6 fold | 9.3 fold | 4.4 fold |
